From US10945975B2, “Delaying latency to seizure by combinations of ketone supplements” (priority 2016, dated 2021)
Marks after values point to notes of the source that are not given here.

How the values were obtained:
Assay type in all cases: in vivo, Sprague-Dawley rats
rat model of CNS-OT [1] = experiment: Latency to seizure in rat model of CNS-OT (hyperbaric oxygen, 5 ATA); conditions: 5 g/kg
Method: (§1) The effect of various ketogenic compositions on latency to seizure and seizure severity was tested in a rat model of CNS-OT. Adult male Sprague-Dawley rats (n=60), 250-300 grams (Harlan) were used in the experiments described herein. Rats were given normal chow and water ad libitum and kept on a 12-hour light/dark cycle. At […], the rats were assigned to one of 5 treatment groups: control (water), 1,3-butanediol acetoacetate diester (KE, 10 g/kg), KE/2 (KE, 5 g/kg), KE+MCT (1,3-butanediol acetoacetate diester+medium chain triglyceride, 5 g/kg+5 g/kg) and KS+MCT (Na^+Ca^2+BHB 5 g/kg+MCT 5 g/kg). Rats received one dose of the designated ketogenic agent or water by oral gavage. Rats were then placed into the hyperbaric chamber 29-30 minutes after treatment, and pressurized to 5 atmospheres as provided below, such that rats were exposed to the hyperbaric conditions at 60 minutes after treatment.
The hyperbaric system consisted of two main elements: 1) a plexiglass chamber (˜3 liter capacity, Diamond Box, Buxco, Electronics Inc., model PLY3114), that housed the rat during the experiment, and 2) a hyperbaric chamber (Reimers System Inc.—7.8 ATA MWP), that contained the plexiglass chamber and functioned as the pressure vessel. Both chambers were connected to an air compressor (oil-less rotary scroll compressor—model DK6086, Powerex).
(§2) Rats were placed in the hyperbaric chamber, where the rats were allowed 10 minutes to acclimate in air. Then the plexiglass chamber was filled with pure oxygen, and the rats were allowed another 15 minutes to acclimate. The outer chamber was pressurized using air (capacity ˜205 liters) to minimize the risk of an electrical-induced fire. Next, both chambers were compressed to 5 atmospheres absolute (ATA) at a rate of approximately 1 ATA/min. Each experiment was visually monitored via a live camera.
Latency to seizure (LS) was calculated from the moment at which the internal and the external chambers reached 5 ATA until the onset of CNS-OT seizures, as identified above. After the onset of seizures, the plexiglass chamber was flushed with air to quickly terminate seizure, and both chambers decompressed to sea level. Decompression rate was 1 ATA/min. A small sample of blood was drawn and tested immediately for glucose and beta-hydroxybutyrate levels.

rat model of CNS-OT [2] = experiment: Seizure severity score in rat model of CNS-OT; conditions: 5 g/kg, oral gavage; FIG. 4
Method: as §1
as §2, with “Next, both chambers were compressed to 5 atmospheres absolute (ATA) at a rate of approximately 1 ATA/min.” left out, “camera. […]” for “camera.”

[3] = Blood beta-hydroxybutyrate (BHB) levels after removal from the hyperbaric chamber; conditions: 5 g/kg, oral gavage
Method: as §1, with “Rats were then placed into the hyperbaric chamber 29-30 minutes after treatment, and pressurized to 5 atmospheres as provided below, such that rats were exposed to the hyperbaric conditions at 60 minutes after treatment.” left out
(§3) Latency to seizure (LS) was calculated from the moment at which the internal and the external chambers reached 5 ATA until the onset of CNS-OT seizures, as identified above. […]
(§4) Body weights were collected for all rats prior to oral gavage of treatment. Blood concentrations of glucose and beta-hydroxybutyrate (BHB) were determined utilizing a commercially available glucose/ketone monitoring system (Precision Xtra® blood glucose and ketone meter) immediately following removal from the hyperbaric chamber. […]

[4] = Blood glucose levels after removal from the hyperbaric chamber; conditions: 10 g/kg, oral gavage; FIG. 7
Method: as §1, with “Rats were then placed into the hyperbaric chamber 29-30 minutes after treatment, and pressurized to 5 atmospheres as provided below, such that rats were exposed to the hyperbaric conditions at 60 minutes after treatment.” left out
as §3, §4

## CC(=O)CC(=O)OCCC(C)OC(=O)CC(C)=O (centres unmarked) [KE, 1,3-butanediol acetoacetate diester]
Rat model of CNS-OT [1]; one dose oral gavage, 5 ATA O2, all collected data
  T-test (p), latency to time of seizure vs control: 0.256†
Rat model of CNS-OT [1]; oral gavage, FIG. 1, all data
  Latency to seizure compared to control: about 2 ×
Rat model of CNS-OT [1]; oral gavage, outliers excluded (2 standard deviations)
  T-test (p), latency to time of seizure vs control: 0.023*
Rat model of CNS-OT [1]; outliers removed, FIG. 2
  Latency to seizure compared to control (in words): significantly increased latency to seizure compared to control
Rat model of CNS-OT [2]
  Seizure severity (score 0-3) vs control, in words: some suppression
[3]; FIG. 6
  Blood BHB levels compared to control: about 3 ×
[3]; all collected data
  T-test (p), BHB levels vs control: 0.0012**
[4]
  Blood glucose levels (in words): highest blood glucose levels
